{
  "source": "patent US12534496B2",
  "about": "“Polymorphic forms of Cyclo (-His-Pro) and methods of use to treat kidney disease” (NovMetaPharma Co., Ltd., priority 2018, dated 2026)",
  "assay_type_in_all_cases": "physicochemical",
  "key": {"[1]": {"assay": "pH solubility assessment in buffers at 37 °C", "conditions": "for μL for Dissolution at 37° C.: 100 mg solid", "experimental": "CHP patterns 1 and 2 were prepared for pH solubility assessment as follows: • 100 mg of CHP pattern 1 and pattern 2 were each weighed out into 4, 5 mL screw top glass vials; • 100 μL of a selected buffer, pre-heated to 37° C., was added to each vial; • Samples were heated to 37° C. in an incubator shaker for ca. 10 minutes after each volume of buffer and checked for sample dissolution."}, "[2]": {"assay": "Drug substance stability study, 25±2 °C/60±5% RH (appearance, assay, impurities, chiral, water content, XRPD)", "conditions": "25° C./60% RH (table title)", "experimental": "Packaging: Sample at each individual time point was packaged into double Antistatic LDPE bags both secured with cable ties. The sample packed for the same storage condition were stored together within a fiber drum, and closed with metal lid. All packages were prepared in the same fashion and labeled.\nTime zero will be the day samples are placed on station. Initial testing results were from the release testing as long as samples are put on station within 30 days of the release test date, otherwise, initial was repeated.\nStudy Requirements: Total 22.5 g sample (Total 21 g sample if initial test is not needed): • 1.5 g for initial test if needed; • 21 g sample will be divided into 14 parts, 1.5 g for each parts, sample for each part should be weighed into double Antistatic LDPE bags both secured with cable ties. The stability samples for each storage condition are stored together within a fiber drum, closed with metal lid, and then stored at 25±2° C./60+5% RH (9 bags) and 40±2° C./75±5% RH (5 bags), respectively. Sampling Time:\nSamples stored not more than 6 months were pulled on schedule date or within 2 business days after the scheduled date. Samples stored more than 6 months were pulled within +2 business days of the scheduled date.\nStability samples stored for one month to one year, and greater than one year were analyzed and completed within 10 and 20 business days after the samples pulled out from stability chamber, respectively. If time zero testing was performed, it was analyzed within 10 business days after study initiation."}, "[3]": {"assay": "Dynamic vapor sorption (DVS) at 25 °C with post-DVS XRPD", "conditions": "for Post-DVS XRPD form: after DVS cycles at 25 °C", "experimental": "DVS was carried out by placing an approximately 10-20 mg sample into a mesh vapour sorption balance pan and loaded into a DVS Intrinsic Dynamic Vapour Sorption Balance by Surface Measurement Systems. The sample was subjected to a ramping profile from 40 to 90% relative humidity (RH) at 10% increments, maintaining the sample at each step until a stable weight had been achieved (dm/dt 0.004%, minimum step length 30 minutes, maximum step length 500 minutes) at 25° C. After completion of the sorption cycle, the sample was dried using the same procedure to 0% RH and then a second sorption cycle back to 40% RH. Two cycles were performed. The weight change during the sorption/desorption cycles were plotted, allowing for the hygroscopic nature of the sample to be determined. XRPD analysis was then carried out on any solid retained.\nApproximately, 10-20 mg of sample was placed into a mesh vapor sorption balance pan and loaded into a DVS Intrinsic dynamic vapor sorption balance by Surface Measurement Systems. The sample was subjected to a ramping profile from 40-90% relative humidity (RH) at 10% increments, maintaining the sample at each step until a stable weight had been achieved (dm/dt 0.004%, minimum step length 30 minutes, maximum step length 500 minutes) at 25° C. After completion of the sorption cycle, the sample was dried using the same procedure to 0% RH and then a second sorption cycle back to 40% RH. Two cycles were performed. The weight change during the sorption/desorption cycles were plotted, allowing for the hygroscopic nature of the sample to be determined. XRPD analysis was then carried out on any solid retained."}},
  "note": "Like-named read-outs stand apart in the source and are kept apart here.",
  "data": [
    {"compound": "O=C1N[C@@H](Cc2cnc[nH]2)C(=O)N2CCC[C@@H]12", "note": "[Pattern 2, Pyrrolo [1,2-a]pyrazine-1,4-dione, hexahydro-3-(1H-imidazol-5-ylmethyl)-, hydrate (1:1), (3S, 8aS)-]", "values": [
      {"measurement": "μL for Dissolution at 37° C.", "setting": "[1]; buffer pH 1", "result": 300, "unit": "µL"},
      {"measurement": "μL for Dissolution at 37° C.", "setting": "[1]; buffer pH 4", "result": 300, "unit": "µL"},
      {"measurement": "μL for Dissolution at 37° C.", "setting": "[1]; buffer pH 6.8", "result": 300, "unit": "µL"},
      {"measurement": "μL for Dissolution at 37° C.", "setting": "[1]; buffer pH 7.2", "result": 300, "unit": "µL"},
      {"measurement": "solubility at 10 min", "setting": "[1]; aqueous buffer, thermodynamic from solid, buffer pH 7.2, 37 °C, read-out: Approximate Solubility", "result": "333 to 500", "unit": "mg/mL"},
      {"measurement": "solubility at 10 min", "setting": "[1]; buffer pH 1, 37 °C, pH 1, thermodynamic from solid, read-out: Approximate Solubility", "result": "333 to 500", "unit": "mg/mL"},
      {"measurement": "solubility at 10 min", "setting": "[1]; buffer pH 4, 37 °C, pH 4, aqueous buffer, thermodynamic from solid, read-out: Approximate Solubility", "result": "333 to 500", "unit": "mg/mL"},
      {"measurement": "solubility at 10 min", "setting": "[1]; buffer pH 6.8, 37 °C, pH 6.8, aqueous buffer, thermodynamic from solid, read-out: Approximate Solubility", "result": "333 to 500", "unit": "mg/mL"},
      {"measurement": "solubility at 10 min", "setting": "[1]; buffer, aqueous buffer, thermodynamic from solid, all pH values tested (pH 1, 4, 6.8 and 7.2), 37 °C, read-out: Solubility (estimated)", "result": "333 to 500", "unit": "mg/mL"},
      {"measurement": "Appearance", "setting": "[2]; 3M", "result": "Off-white powder"},
      {"measurement": "Assay by HPLC", "setting": "[2]; 3M", "result": 103.3, "unit": "%"},
      {"measurement": "Chiral, HPLC: chiral purity", "setting": "[2]; 3M", "result": 100.0, "unit": "%"},
      {"measurement": "Impurities, HPLC: H-His-OH", "setting": "[2]; 3M", "result": 0.08, "unit": "%"},
      {"measurement": "Impurities, HPLC: each other individual (unspecified) impurity", "setting": "[2]; 3M", "result": "individual <0.05%"},
      {"measurement": "Water content (KF)", "setting": "[2]; 3M", "result": 7.1, "unit": "%"},
      {"measurement": "Appearance", "setting": "[2]; 6M", "result": "Off-white powder"},
      {"measurement": "Assay by HPLC", "setting": "[2]; 6M", "result": 103.4, "unit": "%"},
      {"measurement": "Chiral, HPLC: chiral purity", "setting": "[2]; 6M", "result": 100.0, "unit": "%"},
      {"measurement": "Impurities, HPLC: H-His-OH", "setting": "[2]; 6M", "result": 0.08, "unit": "%"},
      {"measurement": "Impurities, HPLC: each other individual (unspecified) impurity", "setting": "[2]; 6M", "result": "individual <0.05%"},
      {"measurement": "Water content (KF)", "setting": "[2]; 6M", "result": 7.2, "unit": "%"},
      {"measurement": "Appearance", "setting": "[2]; Initial", "result": "Off-white powder"},
      {"measurement": "Assay by HPLC", "setting": "[2]; Initial", "result": 103.4, "unit": "%"},
      {"measurement": "Chiral, HPLC: chiral purity", "setting": "[2]; Initial", "result": 100.0, "unit": "%"},
      {"measurement": "Impurities, HPLC: H-His-OH", "setting": "[2]; Initial", "result": 0.07, "unit": "%"},
      {"measurement": "Impurities, HPLC: each other individual (unspecified) impurity", "setting": "[2]; Initial", "result": "individual <0.05%"},
      {"measurement": "Water content (KF)", "setting": "[2]; Initial", "result": 7.4, "unit": "%"},
      {"measurement": "XRPD", "setting": "[2]; Initial, vs reference standard of Pattern 2 (PS03027-15-H)", "result": "Conform to reference"},
      {"measurement": "Post-DVS XRPD form", "setting": "[3]", "result": "no change in form"},
      {"measurement": "Post-DVS XRPD form", "setting": "[3]; listed as CHP pattern 2", "result": "no change in form"},
      {"measurement": "DVS water loss in equivalents", "setting": "[3]; below 10% RH, 25 °C", "result": 0.5, "unit": "equiv. water"},
      {"measurement": "DVS weight loss", "setting": "[3]; below 10% RH, 25 °C", "result": 3.5, "unit": "wt. %"}
    ]}
  ]
}
